Tested on: Rattus norvegicus
Conditions: oral
[1] = chronic, duration: 92 days, gavage, M/F, Fischer 344, Histopathology: Liver-Proliferation of smooth endoplasmic reticulum, parenchymal cell (Electron-microscopic examination) Liver-Decrease in …
[2] = subchronic, gavage, Sprague-Dawley
[3] = short-term, duration: 28 days, gavage, F, Sprague-Dawley, Clinical Observation: Salivation80 + Necropsy: Stomach-Thickening, limiting ridge Forestomach-Thickening, mucosa, focal + Histopathology: …
[4] = short-term, duration: 28 days, gavage, M, Sprague-Dawley, Clinical Observation: Salivation80 + Necropsy: Stomach-Thickening, limiting ridge Forestomach-Thickening, mucosa, focal + Histopathology: …
[5] = short-term, duration: 28 days, gavage, F, Sprague-Dawley, Clinical Observation: Staggering gait + Body Weight Changes: decrease, Gain decrease + Urinalysis: pH decrease, Protein decrease, Volume …
[6] = short-term, duration: 28 days, gavage, M, Sprague-Dawley, Clinical Observation: Staggering gait + Body Weight Changes: decrease, Gain decrease + Urinalysis: pH decrease, Protein decrease, Volume …
[7] = subchronic, gavage, M, Sprague-Dawley, Clinical Observation: Salivation PtosisEmaciation Locomotor activity decrease + Body Weight Changes: Gain decrease + Blood Chemistry: TP …
[8] = short-term, duration: 28 days, gavage, F, Sprague-Dawley, Clinical Observation: Salivation Soft feces Diarrhea Soiled perigenital fur + Body Weight Changes: decrease, Gain decrease + Urinalysis: pH …
[9] = short-term, duration: 28 days, gavage, M, Sprague-Dawley, Clinical Observation: Salivation Soft feces Diarrhea Soiled perigenital fur + Body Weight Changes: decrease, Gain decrease + Urinalysis: pH …

SMILES: O=C1c2ccccc2C(=O)c2c(Cl)cccc21 [1-Chloroanthraquinone]
- NOEL (short-term, duration: 28 days, gavage, M/F, Sprague-Dawley, Clinical Observation: Brown urine + Functional Observational Battery: Landing foot splay decrease, Locomotor activity decrease + Food …): < 4 mg/kg-day

SMILES: OCC1CCCO1 (configuration not stated) [Tetrahydrofurfuryl alcohol]
- NOEL (short-term, duration: 28 days, gavage, M/F, Sprague-Dawley, Clinical Observation: Locomotor activity increase, Locomotor activity decrease, Prone position + Functional Observational Battery: Grip …): 40 mg/kg-day

SMILES: O=Cc1cccc(Cl)c1Cl [2,3-Dichlorobenzaldehyde]
- NOEL (short-term, duration: 28 days, gavage, M/F, Clinical Observation: Salivation + Body Weight Changes: Body weight gain decrease + Blood Chemistry: GPT increase, A/G increase + Organ …): < 20 mg/kg-day

SMILES: c1ccc2c(c1)[nH]c1ccccc12 [Carbazole]
- NOEL (subchronic, gavage, M, Sprague-Dawley, Body Weight Changes: decrease + Blood Chemistry: T-Cho increase, PL increase, Glu decrease + Absolute Organ Weight: Liver increase, Kidney …): 25 mg/kg-day

SMILES: CC(C)=CCO [3-Methyl-2-buten-1-ol]
- NOAEL (subchronic, duration: 90 days, drinking water, M/F, Wistar, Body Weight Changes: Mean body weight decrease, Weight gain decrease + Food Consumption: decrease + Water Consumption: decrease + Urinalysis…): 152 mg/kg-day

SMILES: CC(C)(C)C(O)(CCc1ccc(Cl)cc1)Cn1cncn1 (configuration not stated) [Tebuconazole]
- NOEL (short-term, duration: 28 days, gavage, M/F, Clinical Observation: Coma Polyuria + Body Weight Changes: Body weight gain decrease + Hematology: WBC increase, Seg% increase + Blood …): 30 mg/kg-day

SMILES: CC(=O)CC/C=C(\C)CC/C=C(\C)CC/C=C(\C)CCC=C(C)C [Teprenone]
- NOEL (subchronic, gavage, M/F, Sprague-Dawley, Clinical Observation: Oily fur Unkempt fur Loss of fur Diarrhea + Body Weight Changes: decrease + Urinalysis: Cl increase, Ketone + …): 62.5 mg/kg-day

SMILES: CO[Si](CCCOCC1CO1)(OC)OC (configuration not stated) [Trimethoxy[3-(oxiran-2-ylmethoxy)propyl]silane]
- NOAEL (short-term, duration: 28 days, gavage, Sprague-Dawley, Deaths: None (there were dead animals due to intubation error)): > 1000 mg/kg-day

SMILES: C=C(C)CCl [3-Chloro-2-methylpropene]
- NOEL (subchronic, duration: 13 weeks, gavage, M/F, Fischer 344, Deaths + Clinical Observation: Rough coat>400 + Body Weight Changes: decrease + Histopathology: Liver-Inflammation, Chronic, Focal Liver-…): 100 mg/kg-day

SMILES: COc1cc(S(=O)(=O)CCOS(=O)(=O)O)c(OC)cc1N
- NOEL (short-term, duration: 28 days, gavage, F, Blood Chemistry: Na increase + Relative Organ Weight: Liver increase, Kidney increase): 30 mg/kg-day

SMILES: Clc1ccc(OCOCC#CI)cc1 [1-Chloro-4-(((3-iodo-2-propynyl)oxy)methoxy)benzene]
- NOEL (subchronic, gavage, M, Sprague-Dawley, Clinical Observation: Salivation Loose stool + Body Weight Changes: decreaseor decrease(trend) + Food Consumption: decrease + Hematology: …): 8 mg/kg-day

SMILES: CN(C)C(=O)c1nc(CNC(=O)CN)n(-c2ccc(Cl)cc2C(=O)c2ccccc2Cl)n1.Cl [Rilmazafone hydrochloride]
- NOAEL [1]: 25 mg/kg-day
- NOEL [1]: 1 mg/kg-day

SMILES: COC(=O)CCS [Methyl 3-mercaptopropionate]
- NOAEL (subchronic, gavage, M, Wistar, Clinical Observation: Pushed their heads through the bedding + Relative Organ Weight: Liver increase + Histopathology: Stomach: Hyperplasia…): 100 mg/kg-day

SMILES: Oc1cccc(Br)c1 [Phenol, 3-bromo-]
- NOEL (short-term, duration: 28 days, gavage, M/F, Sprague-Dawley, Clinical Observation: Salivation + Body Weight Changes: Weight gain decrease + Water Consumption: increase + Urinalysis: Volume increase + …): 300 mg/kg-day

SMILES: O=c1[nH]c(=O)n([C@@H]2O[C@H](CO)[C@@H](O)[C@@H]2O)cc1/C=C/Br [Bravavir]
- NOEL (chronic, duration: 182 days, gavage, M/F, Wistar, Deaths + Clinical Observation: Soiled eyelid Smudge, perioral, nose Flush, ear auricle Polyuria Soiled perineal region Decrease or loss of …): 80 mg/kg-day

SMILES: CO[Si](C)(C)OC [Dimethoxydimethylsilane]
- NOAEL (short-term, duration: 29 days, gavage, M/F, Sprague-Dawley, Deaths + Clinical Observation: Soiling of chin and urogenital area Soiling of muzzle + Absolute Organ Weight: Adrenal decrease, Liver …): 250 mg/kg-day

SMILES: CC(O)CNCC(C)O (configuration not stated) [Diisopropanolamine]
- NOAEL (subchronic, duration: 90 days, drinking water, F, Fischer 344, Water Consumption: decrease + Urinalysis: Volume decrease, Specific gravity increase + Absolute Organ Weight: Kidney increase500 + Relative…): 500 mg/kg-day
- NOAEL (subchronic, duration: 90 days, drinking water, M/F, Fischer 344, Water Consumption: decrease + Urinalysis: SG increase, Volume decrease + Absolute Organ Weight: Kidney increase + Relative Organ Weight: …): 100 mg/kg-day
- NOAEL (subchronic, duration: 90 days, drinking water, M, Fischer 344, Water Consumption: decrease + Urinalysis: Volume decrease, Specific gravity increase + Absolute Organ Weight: Kidney increase500 + Relative…): 100 mg/kg-day

SMILES: [In] [Indium]
- NOEL (short-term, duration: 28 days, gavage, Crj:CD): 1000 mg/kg-day

SMILES: S=c1[nH]c(=S)[nH]c(=S)[nH]1 [Trithiocyanuric acid]
- NOEL (subchronic, gavage, M, Sprague-Dawley, Deaths + Clinical Observation: Black area of the pinna Nodule of the tail Dark purple distally of the tail Reddish urine + Body Weight …): < 62.5 mg/kg-day

SMILES: O=C1C=CC(=O)N1c1ccc(Cc2ccc(N3C(=O)C=CC3=O)cc2)cc1 [Bismaleimide]
- NOEL [2]: 1000 mg/kg-day

SMILES: CC(C)(C)CC(C)(C)c1cc(O)c(C(C)(C)CC(C)(C)C)cc1O [2,5-Bis(1,1,3,3-tetramethylbutyl)hydroquinone]
- NOEL (subchronic, gavage, M, Sprague-Dawley, Clinical Observation: Soft stool Soiled perineal region + Body Weight Changes: Gain decrease + Food Consumption: increase + Hematology: Hgb …): 10 mg/kg-day

SMILES: CCOC(=O)CC#N [Ethyl cyanoacetate]
- NOAEL (subchronic, duration: 90 days, gavage, M/F, Wistar, Urinalysis: Volume increase + Hematology: WBC decrease, RBC decrease, HGB decrease, HTC decrease + Histopathology: Liver: Inflammation, …): 100 mg/kg-day

SMILES: CCCCCCCCCCCCc1ccc(S(=O)(=O)[O-])cc1.COc1ccc(C[N+](C)(C)c2ccccc2)cc1
- NOEL (short-term, duration: 28 days, gavage, M/F, Clinical Observation: Salivation + Urinalysis: Occult blood + Blood Chemistry: GPT increase, T-CHO increase, K increase, GOT increase, TG …): 25 mg/kg-day

SMILES: [CH3][Sn]([Cl])([Cl])[Cl] [Trichloromethylstannane]
- NOAEL (subchronic, duration: 90 days, diet, M/F, Wistar, Food Consumption: increase + Urinalysis: Volume increase, Specific gravity decrease, pH increase, Crystals increase + Hematology: RBC …): 14.4 mg/kg-day

SMILES: CC(Cl)CCCC(Cl)CCCC(Cl)CCCC(Cl)CCCC(Cl)CCCC(Cl)CCCl (configuration not stated) [Chloro C22-26 alkanes]
- NOEL (subchronic, duration: 13 weeks, gavage, F, Fischer 344, Histopathology: Liver-Granuloma inflammation): < 235 mg/kg-day

SMILES: C=Cc1ccncc1 [4-Vinylpyridine]
- LOEL [3]: 80 mg/kg-day
- NOEL [3]: 40 mg/kg-day
- LOEL [4]: 40 mg/kg-day
- NOEL [4]: 20 mg/kg-day

SMILES: Nc1ccccc1OCCOc1ccccc1N [2,2'-[Ethane-1,2-diylbis(oxy)]dianiline]
- NOEL (short-term, duration: 28 days, gavage, M/F, Blood Chemistry: Alb increase, T-Bil increase, TG decrease, GPT increase, TP increase + Organ Weight: Liver increase, Kidney increase + …): < 50 mg/kg-day

SMILES: CCCCCCC[CH2][Sn]([S]CC(=O)OCCCCCC(C)C)([S]CC(=O)OCCCCCC(C)C)[S]CC(=O)OCCCCCC(C)C
- NOAEL (subchronic, duration: 13 weeks, diet, M, CIVO, Wistar-derived, Relative Organ Weight: Kidney increase, Liver decrease + Histopathology: Kidney-Increased granularity, tubular epithelial cells): 28.8 mg/kg-day
- NOAEL (subchronic, duration: 13 weeks, drinking water, M/F, CIVO, Wistar-derived, Urinalysis: Epithelial cell increase, Crystals increase + Hematology: HGB decrease + Blood Chemistry: BUN increase + Relative Organ Weight: …): < 45.6 mg/kg-day

SMILES: Cc1ccc(Cl)c(Cl)c1 [3,4-Dichlorotoluene]
- NOEL (subchronic, gavage, M, Sprague-Dawley, Deaths + Clinical Observation: Death-1/6 on treatment day 15R + Body Weight Changes: decrease(tendency)Body weight gain decrease(tendency…): 100 mg/kg-day

SMILES: CC(C)(c1cc(Br)c(OCC(Br)CBr)c(Br)c1)c1cc(Br)c(OCC(Br)CBr)c(Br)c1 (configuration not stated) [Tetrabromobisphenol A-bis(2,3-dibromopropyl ether)]
- NOEL [2]: 1000 mg/kg-day

SMILES: CC1CC(C)(C)CC(c2ccc(O)cc2)(c2ccc(O)cc2)C1 (configuration not stated) [bisphenol TMC]
- NOEL (short-term, duration: 28 days, gavage, M/F, Body Weight Changes: Weight gain decrease + Food Consumption: decrease + Water Consumption: increase + Urinalysis: Protein increase + …): < 100 mg/kg-day

SMILES: COc1ccc(OC)c(Cl)c1 [2-Chloro-1,4-dimethoxybenzene]
- LOEL [5]: 200 mg/kg-day
- NOEL [5]: 40 mg/kg-day
- LOEL [6]: 200 mg/kg-day
- NOEL [6]: 40 mg/kg-day
- NOEL (subchronic, gavage, M, Sprague-Dawley, Hematology: RBC decrease, MCV increase, MCH increase + Blood Chemistry: T-Cho increase, PL increase, Ca increase + Absolute Organ Weight: …): 30 mg/kg-day

SMILES: CCC[N+](=O)[O-] [1-Nitropropane]
- NOAEL (short-term, duration: 28 days, gavage, M/F, Sprague-Dawley, Deaths + Clinical Observation: Salivation Red/brown staining around the mouth Hunched posture + Body Weight Changes: Body weight gain …): 30 mg/kg-day

SMILES: CCCCN(CCCC)C(=S)[S-].CCCCN(CCCC)C(=S)[S-].[Cu+2] [Bis(N,N-dibutyldithiocarbamato)copper]
- NOEL (subchronic, gavage, M, Sprague-Dawley, Urinalysis: Protein increase, Cl increase + Blood Chemistry: Cho increase + Relative Organ Weight: Adrenal decrease): < 40 mg/kg-day

SMILES: CCCCCCCCCCCCC(CO)CCCCCCCCCC (configuration not stated) [1-Tetradecanol, 2-decyl-]
- NOAEL (subchronic, gavage, M, Sprague-Dawley, Urinalysis: Occult blood + Hematology: PT increase, APTT increase + Blood Chemistry: LDH increase): 62.5 mg/kg-day

SMILES: C[C@](N)(Cc1ccc(O)c(O)c1)C(=O)O.C[C@](N)(Cc1ccc(O)c(O)c1)C(=O)O.O.O.O [Methyldopa sesquihydrate]
- NOEL (subchronic, duration: 13 weeks, diet, M/F, Fischer 344, Deaths + Body Weight Changes: decrease + Food Consumption: decrease + Absolute Organ Weight: Liver decrease + Relative Organ Weight: Liver …): < 298 mg/kg-day

SMILES: CC1OC(C)OC(C)O1 (configuration not stated) [Paraldehyde]
- NOEL (short-term, duration: 28 days, gavage, M/F, Sprague-Dawley, Clinical Observation: Locomotor activity decrease + Functional Observational Battery: Width of straddle increase + Relative Organ Weight: …): 100 mg/kg-day

SMILES: CC(O)COc1ccc(C(C)(C)c2ccc(OCC(C)O)cc2)cc1 (configuration not stated) [Bisphenol A bis(polypropylene glycol) ether]
- LOAEL [7]: 120 mg/kg-day
- LOEL [7]: 120 mg/kg-day
- NOAEL [7]: 30 mg/kg-day
- NOEL [7]: 30 mg/kg-day

SMILES: CC(C)c1cccc2ccccc12 [Isopropylnaphthalene]
- LOEL [8]: 250 mg/kg-day
- NOEL [8]: 50 mg/kg-day
- LOEL [9]: 250 mg/kg-day
- NOEL [9]: 50 mg/kg-day

SMILES: C=CC(C)(C)O [2-Methyl-3-buten-2-ol]
- NOAEL (short-term, duration: 28 days, gavage, M/F, Wistar, Deaths + 'excluded + Clinical Observation: Sedation Ataxia Uncoordinated gait Salivation + Blood Chemistry: ALT increase, AST increase + …): 50 mg/kg-day

Reference: EPA's ToxValDB 9.5
